Measurements from ChEMBL document CHEMBL1201862, “PubChem BioAssay data set” (2004).
Values joined by “and” are separate entries in the source; they are usually repeats but may differ in a detail not shown here. Equal values may be shown once.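 Assay format: 96-well plates, 48-hour exposure. GI50: concentration for 50% inhibition of growth.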 Active and inactive are the calls of the source. Rule as the data show it: active = GI50 up to about 1.1 µM and inactive = higher.

Columns and labels:
Assay in all cases: DTP human tumour cell line panel, 48 h
[1] = tested on: HOP-92
[2] = tested on: ACHN
[3] = tested on: SK-OV-3
[4] = tested on: EKVX
[5] = tested on: HOP-62
[6] = tested on: MDA-MB-435
[7] = tested on: CAKI-1
[8] = tested on: Hs-578T
[9] = tested on: TK-10
[10] = tested on: NCI-H226
[11] = tested on: HL-60
[12] = tested on: A549
[13] = tested on: NCI-H460
[14] = tested on: M14
[15] = tested on: NCI/ADR-RES
[16] = tested on: MDA-N
[17] = tested on: RXF 393
[18] = tested on: SR
[19] = tested on: UACC-62
[20] = tested on: SK-MEL-2

SMILES | GI50 [1] | GI50 [2] | GI50 [3] | GI50 [4] | GI50 [5] | GI50 [6] | GI50 [7] | GI50 [8] | GI50 [9] | GI50 [10] | GI50 [11] | GI50 [12] | GI50 [13] | GI50 [14] | GI50 [15] | GI50 [16] | GI50 [17] | GI50 [18] | GI50 [19] | GI50 [20]
COc1cc([C@@H]2C3C(=O)c4ccccc4C3[C@@H](c3cc(OC)c(OC)c(OC)c3)C23Cc2ccccc2C3=O)cc(OC)c1OC (stereo not given in full) | 1.87 µM (inactive) | > 100 µM (inactive) | > 100 µM (inactive) | > 100 µM (inactive) | > 100 µM (inactive) | > 100 µM (inactive) | 2.75 µM (inactive) | > 100 µM (inactive) | > 100 µM (inactive) | > 100 µM (inactive) | > 100 µM (inactive) | > 100 µM (inactive) | > 100 µM (inactive) | > 100 µM (inactive) | > 100 µM (inactive) | > 100 µM (inactive) | > 100 µM (inactive) | > 100 µM (inactive) | – | –
Cc1c2ccccc2c(C)n2c1nc1cc(Cl)c(Cl)cc12 | – | > 10 µM (inactive) | > 10 µM (inactive) | > 10 µM (inactive) | > 10 µM (inactive) | > 10 µM (inactive) | > 10 µM (inactive) | > 10 µM (inactive) | > 10 µM (inactive) | 0.0296 µM (active) | 3.88 µM (inactive) | > 10 µM (inactive) | 4.04 µM (inactive) | > 10 µM (inactive) | 0.172 µM (active) | > 10 µM (inactive) | > 10 µM (inactive) | > 10 µM (inactive) | > 10 µM (inactive) | > 10 µM (inactive)
CC1(C)OC(=C(C#N)C#N)C(C#N)=C1/C=C/c1ccncc1 | 2.42 µM (inactive) | 1.87 µM (inactive) | 4.66 µM (inactive) | 2.32 µM (inactive) | 1.66 µM (inactive) | 3.45 µM (inactive) | 1.97 µM (inactive) | 3.33 µM (inactive) | 2.08 µM (inactive) | 2.43 µM (inactive) | – | 11.4 µM (inactive) | 6.53 µM (inactive) | 2.56 µM (inactive) | 2.03 µM (inactive) | 2.58 µM (inactive) | 2.29 µM (inactive) | 2.41 µM (inactive) | 1.95 µM (inactive) | 2.66 µM (inactive)
CC1CCCc2c(C#N)c(N)nc(-c3ccc(Cl)cc3)c21 (stereo not given) | – | 17.6 µM (inactive) | 38.1 µM (inactive) | 14.7 µM (inactive) | 5.73 µM (inactive) | 23.8 µM (inactive) | 68.7 µM (inactive) | 32.4 µM (inactive) | 29.8 µM (inactive) | 14.5 µM (inactive) | 18.1 µM (inactive) | – | 22.8 µM (inactive) | 19.2 µM (inactive) | 20.6 µM (inactive) | 31 µM (inactive) | 6.87 µM (inactive) | 42.2 µM (inactive) | 15.8 µM (inactive) | 15.6 µM (inactive)
NC(=O)/N=C1\NCCC(=O)N1CCc1c[nH]c2ccccc12 | – | 21.5 µM (inactive) | 50.7 µM (inactive) | 14.6 µM (inactive) | 19.4 µM (inactive) | 17.8 µM (inactive) | 0.426 µM (active) | 20.5 µM (inactive) | 17.5 µM (inactive) | 18.2 µM (inactive) | 19.2 µM (inactive) | 18.9 µM (inactive) | 16.3 µM (inactive) | 14.8 µM (inactive) | 17.2 µM (inactive) | 19.9 µM (inactive) | 12.1 µM (inactive) | 25.8 µM (inactive) | 18.2 µM (inactive) | 14.2 µM (inactive)
NCCSCCC(=O)O | > 100 µM (inactive) | > 25.6 µM (inactive) | > 65.8 µM (inactive) | > 100 µM (inactive) | > 68.5 µM (inactive) | > 100 µM (inactive) | > 59.2 µM (inactive) | > 100 µM (inactive) | > 67.1 µM (inactive) | > 100 µM (inactive) | – | > 69.2 µM (inactive) | > 12.4 µM (inactive) | > 74.8 µM (inactive) | > 69.8 µM (inactive) | > 81.7 µM (inactive) | > 66.7 µM (inactive) | 14.4 µM (inactive) | > 45.4 µM (inactive) | > 83.8 µM (inactive)
C1=N\CCOCC/N=C/c2ccccc2OCc2cccc(n2)COc2ccccc2/1 | 10.4 µM (inactive) | 9.23 µM (inactive) | 11.2 µM (inactive) | 16.6 µM (inactive) | 16.5 µM (inactive) | 0.778 µM (active) | – | 6.82 µM (inactive) | 6.27 µM (inactive) | – | 5.07 µM (inactive) | > 25 µM (inactive) | > 25 µM (inactive) | 8.87 µM (inactive) | 3.39 µM (inactive) | 0.942 µM (active) | 9.59 µM (inactive) | 0.977 µM (active) | 2.27 µM (inactive) | 8.63 µM (inactive)
C=CCCC1CCCCC/C1=N\N(C)C (stereo not given) | > 100 µM (inactive) | > 100 µM (inactive) | > 100 µM (inactive) | > 100 µM (inactive) | > 100 µM (inactive) | > 100 µM (inactive) | > 100 µM (inactive) | > 100 µM (inactive) | > 100 µM (inactive) | > 100 µM (inactive) | > 100 µM (inactive) | > 100 µM (inactive) | > 100 µM (inactive) | > 100 µM (inactive) | > 100 µM (inactive) | > 100 µM (inactive) | – | > 100 µM (inactive) | > 100 µM (inactive) | > 100 µM (inactive)
CCOP(=O)(OCC)C(C)(CC)NC(=O)C(C(F)(F)F)C(F)(F)F (stereo not given) | > 57 µM (inactive) | > 100 µM (inactive) | > 100 µM (inactive) | > 100 µM (inactive) | > 100 µM (inactive) | > 100 µM (inactive) and > 87.7 µM (inactive) | > 100 µM (inactive) | > 100 µM (inactive) | 75.9 µM (inactive) | > 100 µM (inactive) | – | > 100 µM (inactive) | > 100 µM (inactive) | > 100 µM (inactive) | > 100 µM (inactive) | > 100 µM (inactive) | > 100 µM (inactive) | 63.4 µM (inactive) and 33.8 µM (inactive) | – | > 100 µM (inactive)
CCC(=O)N1NC(=O)C(CC)(CC)C1=O | – | > 100 µM (inactive) | > 100 µM (inactive) | > 100 µM (inactive) | > 100 µM (inactive) | > 100 µM (inactive) | > 100 µM (inactive) | 83 µM (inactive) | > 100 µM (inactive) | > 100 µM (inactive) | > 100 µM (inactive) | > 100 µM (inactive) | > 100 µM (inactive) | > 100 µM (inactive) | > 100 µM (inactive) | > 100 µM (inactive) | > 100 µM (inactive) | > 100 µM (inactive) | > 100 µM (inactive) | > 100 µM (inactive)
N#CC1Cc2cc3c(cc21)OCO3 (stereo not given) | > 100 µM (inactive) | > 100 µM (inactive) | – | > 100 µM (inactive) | > 100 µM (inactive) | > 100 µM (inactive) | > 100 µM (inactive) | > 100 µM (inactive) | > 100 µM (inactive) | > 100 µM (inactive) | – | > 100 µM (inactive) | > 100 µM (inactive) | > 100 µM (inactive) | > 100 µM (inactive) | > 100 µM (inactive) | – | > 100 µM (inactive) | > 100 µM (inactive) | > 100 µM (inactive)
O=c1[nH]nc(Cc2ccccc2)n1/N=C/c1c(O)ccc2ccccc12 | 19.2 µM (inactive) | 22 µM (inactive) | – | 20.7 µM (inactive) | – | 29.2 µM (inactive) | 28.2 µM (inactive) | 19.4 µM (inactive) | 33 µM (inactive) | 24.5 µM (inactive) | – | 32 µM (inactive) | – | – | 20.1 µM (inactive) | 54.6 µM (inactive) | 22.3 µM (inactive) | 21.3 µM (inactive) | 29.2 µM (inactive) | 38.1 µM (inactive)
CCOC(=O)/C(C#N)=N\Nc1ccc(-n2c(C)nc3ccccc3c2=O)cc1 | > 100 µM (inactive) | > 100 µM (inactive) | > 100 µM (inactive) | 53.2 µM (inactive) | > 100 µM (inactive) | 47.6 µM (inactive) | > 100 µM (inactive) | 59 µM (inactive) | > 100 µM (inactive) | 24.5 µM (inactive) | 26.5 µM (inactive) | 73.6 µM (inactive) | 67.5 µM (inactive) | 69.8 µM (inactive) | 18.9 µM (inactive) | 47.3 µM (inactive) | – | 39.4 µM (inactive) | 70.3 µM (inactive) | > 100 µM (inactive)
CCn1c(=O)c2c(=O)[nH][nH]c2c2ccccc21 | > 100 µM (inactive) | > 100 µM (inactive) | – | > 100 µM (inactive) | > 100 µM (inactive) | > 100 µM (inactive) | – | > 100 µM (inactive) | > 100 µM (inactive) | > 100 µM (inactive) | > 100 µM (inactive) | > 100 µM (inactive) | > 100 µM (inactive) | – | > 100 µM (inactive) | > 100 µM (inactive) | – | > 100 µM (inactive) | – | –
O=C1CC(n2cccc2)c2cc(Br)sc21 (stereo not given) | > 100 µM (inactive) | > 100 µM (inactive) | > 100 µM (inactive) | > 100 µM (inactive) | > 100 µM (inactive) | 87.5 µM (inactive) | > 100 µM (inactive) | > 100 µM (inactive) | > 100 µM (inactive) | > 100 µM (inactive) | 14.5 µM (inactive) | > 100 µM (inactive) | > 100 µM (inactive) | > 100 µM (inactive) | > 100 µM (inactive) | 55.6 µM (inactive) | – | 15.8 µM (inactive) | > 100 µM (inactive) | > 100 µM (inactive)
